{"source": "patent US20260151345A1", "about": "“FAST-DISSOLVING DOSAGE FORMS AND USES THEREOF” (Astrocyte Pharmaceuticals, Inc., priority 2022, published 2026)", "key": {"[1]": {"experiment": "Pharmacokinetics / bioavailability after oral disintegrating tablet dose", "type": "in vivo, male Beagle dogs", "conditions": "for AUC(0-t) / AUC(0-inf) / Cmax / Tmax / half-life: po, 50.75 mg", "description": "The purpose of this study was to evaluate the bioavailability of Compound A following administration of the ODT formulation. Animals were administered Compound A, as described in the following table.\n(§1) Dosing occurred at 50.75 mg/dose. The ODT was placed on the dog's tongue and the mouth held shut for approximately 30 seconds to allow the material to dissolve. In each case, the tablet quickly formed a white paste that was adhered to the tongue and was not swallowed whole.\nWhole blood samples were collected from all animals as noted in the following table for determination of test article exposure.\n• Method: LC-MS/MS • Column: Restek Raptor ARC-18 2.7 μm (30×2.1 mm) • Mobile Phase A: 0.1% Formic Acid in Water • Mobile Phase B: 0.1% Formic Acid in Acetonitrile • Ionization: (±) ESI with Ion Spray • Analyte: Compound A • MRM: m/z 324.200/182.200 amu • Internal Standard: Labetalol • MRM: m/z 329.200/294.200 amu • Assay Range (LLOQ and ULOQ): 1-5000 ng/mL\nPharmacokinetic concentration-time data for Compound A was analyzed using non-compartmental methods (Phoenix® WinNonlin® Version 8.1) with nominal sampling times and dosages. The following parameters were calculated whenever possible and as data allowed: Volume of distribution, Clearance, tl/2, C0/Cmax, Tmax, % F. and AUC. Additional parameters may have been calculated as appropriate. Descriptive statistics were generated using Phoenix WinNonlin."}, "male Beagle dogs": {"tested_on": "male Beagle dogs", "experiment": "Tolerability (cageside observations) after ODT dose", "type": "in vivo", "conditions": "50.75 mg/dose via ODT", "description": "as §1\nCageside Observations, General signs of toxicity including fecal and urine quality, were completed approximately 1 hour post dose on dose days."}, "[2]": {"conditions": "single ODT dose 50.75 mg/dose, male Beagle dogs"}}, "note": "Values joined by “and” are separate entries in the source; they are usually repeats but may differ in a detail not shown here. Identical values can stand only once. Like-named read-outs stand apart in the source and are kept apart here.", "data": [{"compound": "CSc1nc(N)c2ncn([C@H]3[C@H](O)[C@H](O)[C@]4(CO)C[C@H]34)c2n1", "note": "[Compound A]", "values": [{"measurement": "Compound A Plasma Concentration, individual animals", "setting": "[1]; 0.25 hr postdose, ODT 50.75 mg/dose, male Beagle dogs", "result": "356 ng/mL and 309 ng/mL and 352 ng/mL and 114 ng/mL"}, {"measurement": "Compound A Plasma Concentration, individual animals", "setting": "[1]; 0.5 hr postdose, ODT 50.75 mg/dose, male Beagle dogs", "result": "2300 ng/mL and 1840 ng/mL and 1690 ng/mL and 622 ng/mL"}, {"measurement": "Compound A Plasma Concentration, individual animals", "setting": "[1]; 1 hr postdose, ODT 50.75 mg/dose, male Beagle dogs", "result": "2370 ng/mL and 2510 ng/mL and 1810 ng/mL"}, {"measurement": "Compound A Plasma Concentration, individual animals", "setting": "[1]; 2 hr postdose, ODT 50.75 mg/dose, male Beagle dogs", "result": "1990 ng/mL and 2070 ng/mL and 1530 ng/mL"}, {"measurement": "Compound A Plasma Concentration, individual animals", "setting": "[1]; 4 hr postdose, ODT 50.75 mg/dose, male Beagle dogs", "result": "1100 ng/mL and 1160 ng/mL and 798 ng/mL"}, {"measurement": "Compound A Plasma Concentration, individual animals", "setting": "[1]; 8 hr postdose, ODT 50.75 mg/dose, male Beagle dogs", "result": "319 ng/mL and 413 ng/mL and 248 ng/mL"}, {"measurement": "Compound A Plasma Concentration, individual animals", "setting": "[1]; 24 hr postdose, ODT 50.75 mg/dose, male Beagle dogs", "result": "132 ng/mL and 48.3 ng/mL and 119 ng/mL and 28.8 ng/mL"}, {"measurement": "Percent F, Mean", "setting": "[1]; N=4, single ODT dose, 4.66 mg/kg dose used for calculation, estimated value", "result": 114, "unit": "%"}, {"measurement": "concentration at 0.25 h", "setting": "[1]; male, Beagle, dog, plasma, oral, 50.75 mg/dose, 0.25 hr postdose, N=4, ODT 50.75 mg/dose, male Beagle dogs, read-out: Compound A Plasma Concentration, Mean", "result": 283, "unit": "ng/mL"}, {"measurement": "concentration at 0.5 h", "setting": "[1]; male, Beagle, dog, plasma, oral, 50.75 mg/dose, 0.5 hr postdose, N=4, ODT 50.75 mg/dose, male Beagle dogs, read-out: Compound A Plasma Concentration, Mean", "result": 1610, "unit": "ng/mL"}, {"measurement": "concentration at 1 h", "setting": "[1]; male, Beagle, dog, plasma, oral, 50.75 mg/dose, 1 hr postdose, N=4, ODT 50.75 mg/dose, male Beagle dogs, read-out: Compound A Plasma Concentration, Mean", "result": 2190, "unit": "ng/mL"}, {"measurement": "concentration at 1 h", "setting": "[1]; male, Beagle, dog, plasma, oral, 50.75 mg/dose, 1 hr postdose, ODT 50.75 mg/dose, male Beagle dogs, read-out: Compound A Plasma Concentration, individual animals", "result": 2080, "unit": "ng/mL"}, {"measurement": "concentration at 2 h", "setting": "[1]; male, Beagle, dog, plasma, oral, 50.75 mg/dose, 2 hr postdose, N=4, ODT 50.75 mg/dose, male Beagle dogs, read-out: Compound A Plasma Concentration, Mean", "result": 1810, "unit": "ng/mL"}, {"measurement": "concentration at 2 h", "setting": "[1]; male, Beagle, dog, plasma, oral, 50.75 mg/dose, 2 hr postdose, ODT 50.75 mg/dose, male Beagle dogs, read-out: Compound A Plasma Concentration, individual animals", "result": 1650, "unit": "ng/mL"}, {"measurement": "concentration at 4 h", "setting": "[1]; male, Beagle, dog, plasma, oral, 50.75 mg/dose, 4 hr postdose, N=4, ODT 50.75 mg/dose, male Beagle dogs, read-out: Compound A Plasma Concentration, Mean", "result": 1010, "unit": "ng/mL"}, {"measurement": "concentration at 4 h", "setting": "[1]; male, Beagle, dog, plasma, oral, 50.75 mg/dose, 4 hr postdose, ODT 50.75 mg/dose, male Beagle dogs, read-out: Compound A Plasma Concentration, individual animals", "result": 964, "unit": "ng/mL"}, {"measurement": "concentration at 8 h", "setting": "[1]; male, Beagle, dog, plasma, oral, 50.75 mg/dose, 8 hr postdose, N=4, ODT 50.75 mg/dose, male Beagle dogs, read-out: Compound A Plasma Concentration, Mean", "result": 354, "unit": "ng/mL"}, {"measurement": "concentration at 8 h", "setting": "[1]; male, Beagle, dog, plasma, oral, 50.75 mg/dose, 8 hr postdose, ODT 50.75 mg/dose, male Beagle dogs, read-out: Compound A Plasma Concentration, individual animals", "result": 434, "unit": "ng/mL"}, {"measurement": "concentration at 24 h", "setting": "[1]; male, Beagle, dog, plasma, oral, 50.75 mg/dose, 24 hr postdose, N=4, ODT 50.75 mg/dose, male Beagle dogs, read-out: Compound A Plasma Concentration, Mean", "result": 82, "unit": "ng/mL"}, {"measurement": "AUC(0-t)", "setting": "[1]; male, Beagle, dog, plasma, N=4, single ODT dose 50.75 mg/dose, male Beagle dogs, read-out: AUC0-24, Mean", "result": 12200, "unit": "ng·h/mL"}, {"measurement": "AUC(0-inf)", "setting": "[1]; male, Beagle, dog, plasma, N=4, single ODT dose 50.75 mg/dose, male Beagle dogs, read-out: AUCinf, Mean", "result": 13000, "unit": "ng·h/mL"}, {"measurement": "Cmax", "setting": "[1]; male, Beagle, dog, plasma, N=4, single ODT dose 50.75 mg/dose, male Beagle dogs, read-out: Cmax, Mean", "result": 2250, "unit": "ng/mL"}, {"measurement": "Tmax", "setting": "[1]; male, Beagle, dog, plasma, N=4, single ODT dose 50.75 mg/dose, male Beagle dogs, read-out: Tmax, Mean", "result": 0.88, "unit": "h"}, {"measurement": "half-life", "setting": "[1]; male, Beagle, dog, plasma, N=4, single ODT dose 50.75 mg/dose, male Beagle dogs, read-out: t1/2, Mean (converted)", "result": 5.51, "unit": "h"}, {"measurement": "AUC(0-t)", "setting": "[1]; male, Beagle, dog, plasma, single ODT dose 50.75 mg/dose, male Beagle dogs, read-out: AUC0-24, individual animals", "result": 9020, "unit": "ng·h/mL"}, {"measurement": "AUC(0-inf)", "setting": "[1]; male, Beagle, dog, plasma, single ODT dose 50.75 mg/dose, male Beagle dogs, read-out: AUCinf, individual animals", "result": 9200, "unit": "ng·h/mL"}, {"measurement": "Cmax", "setting": "[1]; male, Beagle, dog, plasma, single ODT dose 50.75 mg/dose, male Beagle dogs, read-out: Cmax, individual animals", "result": 1810, "unit": "ng/mL"}, {"measurement": "Tmax", "setting": "[1]; male, Beagle, dog, plasma, single ODT dose 50.75 mg/dose, male Beagle dogs, read-out: Tmax, individual animals", "result": 1, "unit": "h"}, {"measurement": "half-life", "setting": "[1]; male, Beagle, dog, plasma, single ODT dose 50.75 mg/dose, male Beagle dogs, read-out: t1/2, individual animals (converted)", "result": 4.41, "unit": "h"}, {"measurement": "AUC0-24, individual animals", "setting": "[1]; [2]", "result": "13300 ng·h/mL and 12400 ng·h/mL and 14300 ng·h/mL"}, {"measurement": "AUCinf, individual animals", "setting": "[1]; [2]", "result": "14700 ng·h/mL and 12700 ng·h/mL and 15300 ng·h/mL"}, {"measurement": "Cmax, individual animals", "setting": "[1]; [2]", "result": "2300 ng/mL and 2370 ng/mL and 2510 ng/mL"}, {"measurement": "Tmax, individual animals", "setting": "[1]; [2]", "result": 0.50, "unit": "h"}, {"measurement": "t1/2, individual animals", "setting": "[1]; [2]", "result": "7.51 h and 4.33 h and 5.79 h"}, {"measurement": "Percent F, individual animals", "setting": "[1]; single ODT dose, 4.66 mg/kg dose used for calculation, estimated from nominal dose and estimated AUCinf, 4.66 mg/kg", "result": "80.5% and 116% (2×) and 143%"}, {"measurement": "Tolerability", "setting": "male Beagle dogs", "result": "well tolerated"}]}]}
